Data on two compounds can be found in patent publication US9671405B2, “Identifying taxane sensitivity in prostate cancer patients” (Cornell University, priority 2012, dated 2017).

Holding throughout (assay type): cell-based, human
In one test the test system is leucocytes. The test can be described thus: On-chip ex-vivo taxane treatment, microtubule bundling in leucocytes present on the chip. As to conditions: FIG. 5F patient (patient 4), 50 nM paclitaxel ex-vivo on-chip. The source says: FIG. 5A-5F illustrates on-chip assessment of effective drug-target engagement in viable GEDI-captured circulating tumor cells, and that tubulin responses to taxane treatment can be assessed in GEDI-captured cells. […] One ml of spiked blood was then passed through each of three GEDI devices. […] Following drug treatment, cells were fixed and processed for immunofluorescence staining using antibodies against tubulin and CD45. DAPI was used as a DNA counterstain to evaluate nuclear integrity. […] Following drug treatment, the PSMA-captured cells were fixed and processed for immunofluorescence staining as in FIG. 5A with the addition of cytokeratin-18 as an alternative epithelial marker. […]
For ex-vivo drug treatment experiments, the blood sample from each patient was divided and 1 ml was flown to each of three GEDI devices simultaneously. […] All circulating tumor cells (PSMA^+/CD45−/DAPI^+) were assessed for the presence of microtubule bundles as evidence of effective drug-target engagement. The percent of circulating tumor cells with evidence of microtubule bundling was calculated. In all samples analyzed, bundling was clearly apparent by the distinct shape, width, orientation and increased fluorescence intensity of microtubule bundles as compared with microtubules from untreated cells. […]

Test [1] deals with GEDI-captured circulating tumor cells from castration-resistant prostate cancer patients. Kind of test: On-chip ex-vivo taxane treatment of GEDI-captured patient circulating tumor cells, microtubule bundling as drug-target engagement. From the text:
One ml of spiked blood was then passed through each of three GEDI devices. […] Following drug treatment, cells were fixed and processed for immunofluorescence staining using antibodies against tubulin and CD45. DAPI was used as a DNA counterstain to evaluate nuclear integrity. […] Following drug treatment, the PSMA-captured cells were fixed and processed for immunofluorescence staining as in FIG. 5A with the addition of cytokeratin-18 as an alternative epithelial marker.
For ex-vivo drug treatment experiments, the blood sample from each patient was divided and 1 ml was flown to each of three GEDI devices simultaneously. […] At the end of treatment, the GEDI-captured cells were fixed with PHEMO buffer and processed for multiplex confocal microscopy following immunostaining with different cell surface and cytoplasmic antibodies as indicated. […] The percent of circulating tumor cells with evidence of microtubule bundling was calculated. […] In addition, DAPI counterstain was used to assess the presence of mitotic or apoptotic nuclei following drug treatment.
The GEDI-captured circulating tumor cells were tested in situ (i.e., while in the GEDI device) to evaluate their chemosensitivity to taxanes, and predict a patient's clinical response to therapy. […] Microtubule bundling is the first event induced by taxane treatment, resulting in downstream mitotic arrest and apoptotic cell death, and is therefore an appropriate marker of efficient taxane drug-target engagement.

The test system of another test is ARv5,6,7. Kind of test: Nuclear localization of GFP-tagged ARv5,6,7 in M12 cells, confocal microscopy. As to conditions: 10 nM R1881 2 h. The source says:
(§1) Cells were then fixed, immunostained for tubulin, and imaged for GFP-AR and tubulin by confocal microscopy. Androgen receptor is shown as lighter staining (green in the original), while tubulin staining is darker but visible as lighter areas in the images (red in the original). Representative, high-magnification images from each condition are shown. […] Scale bar: 10 μm. FIG. 9D is a bar graph depicting the ratio of cells with nuclear androgen receptor over those with cytoplasmic androgen receptor for each condition. […] Relative mRNA expression of TMPRSS2 and FKBP51 was assessed by qPCR. Values were corrected to GAPDH and normalized to untreated M12 cells expressing control lentivirus (M12 lenti). […] Androgen receptor protein expression was detected by staining with anti-androgen receptor or anti-ARN-21 antibodies. […] Cells were then fixed, immunostained for tubulin, and imaged for GFP-AR and tubulin by confocal microscopy. […]
(§2) In addition, M12 cells stably expressing GFP-tagged AR-wt, AR or variants were generated in Or Giannakakou's laboratory. GFP^+ cells from all three androgen receptor cell lines were sorted using fluorescence activated cell sorting (FACS) on a BD FACSAria II cell sorter (BD Biosciences, Franklin Lakes, N.J., USA) and subsequently expanded in media containing G418 ([…]). […]

For another test, the system named is ARv7. The test can be described thus: Nuclear localization of GFP-tagged ARv7 in M12 cells, confocal microscopy. As to conditions: 10 nM R1881 2 hr.
From the text: as §1, §2

`CC(=O)O[C@H]1C(=O)[C@@]2(C)[C@H]([C@H](OC(=O)c3ccccc3)[C@]3(O)C[C@H](OC(=O)[C@H](O)[C@@H](NC(=O)c4ccccc4)c4ccccc4)C(C)=C1C3(C)C)[C@]1(OC(C)=O)CO[C@@H]1C[C@@H]2O` [paclitaxel]: the “leucocytes present on the chip showing microtubule bundling” value in the test on leucocytes is approximately 100%. Further, in test [1] (patient 2, 100 nM or 1 uM paclitaxel ex-vivo on-chip), the “microtubule bundling of circulating tumor cells” value is on record as “display microtubule bundling”. Moreover, in test [1] (patient 4, 50 nM paclitaxel ex-vivo on-chip), the “response of circulating tumor cells to drug treatment” value is on record as “heterogeneous response”. Moreover, the “apoptotic nuclei in circulating tumor cells” value in test [1] (patient docetaxel progressor on cabazitaxel, ex vivo 24 hr) is recorded as “exhibited apoptotic nuclei”. For the same compound, the “effect on microtubule cytoskeleton of captured circulating tumor cells” value in test [1] (patient of FIG. 5B (docetaxel progressor), 100 nM ex vivo, 24 hr) was “clear evidence of microtubule bundling”. The “mitotic arrest of captured circulating tumor cells” value in test [1] (same patient as FIG. 5B (FIG. 5C), ex vivo 24 hr) is given as “signs of aberrant mitotic arrest”.
For `C[C@]1(O)CC[C@H]2[C@@H]3CCC4=CC(=O)CCC4=C3C=C[C@@]21C` [R1881, Methyltrienolone], the “nuclear accumulation of ARv5,6,7 induced by R1881” value in the test with ARv5,6,7 is “did not induce any further nuclear accumulation”. Besides, in the test with ARv7, the “nuclear accumulation of ARv7 induced by R1881” value was “does not increase nuclear accumulation”.
